These results are taken from article PMC8944987, “In Vivo Efficacy of SQ109 against Leishmania donovani, Trypanosoma spp. and Toxoplasma gondii and In Vitro Activity of SQ109 Metabolites” (Biomedicines, 2022).

Data set [1] deals with L. mexicana promastigotes. Further details: method as in PMID 27458218. The following applies: cited from earlier work.
The test system of another data set is T. cruzi Dm28c. In words: T. cruzi acute in vivo mouse model. Further details: species or system BALB/c mice. The text has this:
BALB/c mice were infected with TCT of T. cruzi Dm28c (10^7 cells) by i.p. injection. Five days post-infection, infected mice were sacrificed to collect BSF of T. cruzi. BALB/c mice were intraperitoneally infected with BSF of T. cruzi Dm28c (5 × 10^4 cells). Five days post-infection, BALB/c mice were infected with previously collected 2nd-round BSF cells (3 × 10^4 cells). Mice were divided into groups (n = 10) and treated orally with drugs for 5 consecutive days for 2 weeks by starting from day 2 post-infection administration of DPBS, 100 mg/kg of benznidazole, or 100 mg/kg of SQ109 via p.o. route, respectively. Parasitemia was evaluated every 2 days for 5 weeks by blood collection from the mouse tail vein, and survival was monitored for 2 months. Mice showing impaired health status were euthanized.

The subject of data set [2] is T. cruzi Dm28c epimastigotes. The data set can be described thus: T. cruzi epimastigotes assay (resazurin). It is filed as cell-based. The following applies: Trypanosoma cruzi. The procedure: The exponential growth phase of epimastigotes were treated with different concentrations of drugs or 0.1% DMSO as negative control and incubated for 3 days at 28 °C. The viability of parasites was quantified with resazurin as described in the T. brucei assay.
For orientation: Resazurin is reduced to fluorescent resorufin, in cell work by metabolically active cells.

The nature of data set [3]: Reported tissue (liver) accumulation on repeated oral dosing. Particulars: assuming the same volume-to-mass ratio, 28-day oral dosing, 10 mg/kg, from ref 30, read-out: SQ109 liver concentration. It is filed as in vivo.
The mark [4] stands for this setting: 100 mg/kg oral gavage, q.d. for 2 weeks.

Usually IC50 stands for the concentration that inhibits the measured activity by half. One may read the EC50 as the concentration giving half of the maximal effect. For `CC(C)=CCC/C(C)=C/CNCCNC1C2CC3CC(C2)CC1C3` (centres unmarked) [SQ109, N-adamantan-2-yl-N’-((E)-3,7-dimethyl-octa-2,6-dienyl)-ethane-1,2-diamine], the IC50 in data set [1] was about 0.5 µM; in data set [2] (72 h, Figure 2C, read-out: IC50, T. cruzi epimastigote growth inhibition (resazurin reduction)), 12.6 µM. Further, the “delay of the peak of parasitemia compared to the vehicle control” value in the data set on T. cruzi Dm28c (setting [4]) is listed as 4 days. The compound also yielded a peak of parasitemia in the data set on T. cruzi Dm28c (setting [4]) of 18 days post-infection. In the data set on T. cruzi Dm28c (100 mg/kg oral gavage, q.d. for 2 weeks, 14 days post-infection), the “parasite reduction at the peak of parasitemia of the vehicle group” value came out at 46.1%. For the same compound, in the data set with T. cruzi Dm28c (100 mg/kg p.o., 40 days post-infection), the “survival of T. cruzi infected mice” value turned out to be 80%. For the same compound, the EC50 in data set [2] (epimastigotes, read-out: T. cruzi Dm28c EC50 (EPI)) came to 4.5 µM. For the same compound, in data set [3], the concentration at 28 days is about 6 µM.
